What was measured:
[1] = system: Total ATXN3 (tATXN3) protein; assay: Endogenous Total ATXN3 (tATXN3) Protein Assay (MSD immunoassay of cell lysates); type: cell-based; conditions: average IC50, total ATXN3 protein in cell lysate after 48 h with compound (Table 1)
Summary of the method: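 Cells in DMEM/10% FBS were plated at 10,000 per well onto 7-point, 3.16-fold compound dilutions in duplicate for 48 h at 37° C, then lysed. Total ATXN3 in lysates was measured by MSD sandwich immunoassay: mouse anti-ATXN3 capture, rabbit anti-ATXN3 detection, SULFO-TAG anti-rabbit. Average IC50 was reported in star bins.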

ATXN3 pre-mRNA = assay: RT-qPCR Assay to Quantify Exon 4 Skipping in ATXN3 pre-mRNA in Cells; type: cell-based; conditions: percent exon 4 skipping in ATXN3 pre-mRNA, RT-qPCR of cell lysates; average IC50
Summary of the method: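 Cells plated at 10,000/well onto a 7-point, 3.16-fold DMSO dilution series (duplicates), incubated 24 h at 37 °C, then lysed. Exon 4 skipping measured by one-step RT-qPCR (48 °C RT, 40 cycles); IC50 interpolated from dose-response fit of percent skipping.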

Compound	IC50 [1]	IC50 (ATXN3 pre-mRNA)
Cc1c([C@@]2(F)CCC[C@@H]2N)sc2c(NCc3ccco3)nc(Cl)nc12 [Compound 128, 6-((1R,2S)-2-amino-1-fluorocyclopentyl)-2-chloro-N-(furan-2-ylmethyl)-7-methylthieno[3,2-d]pyrimidin-4-amine]	> 1000 nM	> 1000 nM
2-((1R,6S)-6-amino-2,2-difluorocyclohexyl)-N-(but-2-yn-1-yl)-5-chloro-3-iodothieno[3,2-b]pyridin-7-amine and 2-((1S,6R)-6-amino-2,2-difluorocyclohexyl)-N-(but-2-yn-1-yl)-5-chloro-3-iodothieno[3,2-b]pyridin-7-amine [Compound 383]	30 to 300 nM	30 to 300 nM
4-(2-((1R,6R)-6-aminocyclohex-3-en-1-yl)-5-chloro-7-((thiophen-2-ylmethyl)amino)thieno[3,2-b]pyridin-3-yl)but-3-yn-1-ol and 4-(2-((1S,6S)-6-aminocyclohex-3-en-1-yl)-5-chloro-7-((thiophen-2-ylmethyl)amino)thieno[3,2-b]pyridin-3-yl)but-3-yn-1-ol [Compound 177]	≤ 30 nM	≤ 30 nM
N[C@H]1CCCCCC[C@@H]1c1sc2c(NCc3cccs3)cc(Cl)nc2c1Br [Compound 99, 2-((1S,2S)-2-aminocyclooctyl)-3-bromo-5-chloro-N-(thiophen-2-ylmethyl)thieno[3,2-b]pyridin-7-amine]	30 to 300 nM	30 to 300 nM
Cc1c([C@@H]2OCCC[C@H]2N)sc2c(NCc3ccccc3)cc(Cl)nc12 [Compound 109, 2-((2R,3R)-3-aminotetrahydro-2H-pyran-2-yl)-N-benzyl-5-chloro-3-methylthieno[3,2-b]pyridin-7-amine]	30 to 300 nM	30 to 300 nM
CCc1c([C@@H]2CCCCC[C@H]2N)sc2c(NCc3cccs3)cc(Cl)nc12 (single isomer, unassigned) [Compound 86, 2-((1R,2R)-2-aminocycloheptyl)-5-chloro-3-ethyl-N-(thiophen-2-ylmethyl)thieno[3,2-b]pyridin-7-amine or 2-((1S,2S)-2-aminocycloheptyl)-5-chloro-3-ethyl-N-(thiophen-2-ylmethyl)thieno[3,2-b]pyridin-7-amine]	> 1000 nM	> 1000 nM
N[C@@H]1CCCC[C@H]1c1sc2c(NCc3cccs3)cc(Cl)nc2c1C1CC1 [Compound 137, 2-((1R,2R)-2-aminocyclohexyl)-5-chloro-3-cyclopropyl-N-(thiophen-2-ylmethyl)thieno[3,2-b]pyridin-7-amine]	> 1000 nM	> 1000 nM
CCc1c([C@@H]2CCCCCC[C@H]2N)sc2c(NCc3cccs3)cc(Cl)nc12 [Compound 158, 2-((1R,2R)-2-aminocyclooctyl)-5-chloro-3-ethyl-N-(thiophen-2-ylmethyl)thieno[3,2-b]pyridin-7-amine]	> 1000 nM	> 1000 nM
2-((1R,6R)-6-aminocyclohex-3-en-1-yl-2,2,3,4,5,5-d6)-3,5-dichloro-N-(furan-2-ylmethyl)thieno[3,2-b]pyridin-7-amine and 2-((1S,6S)-6-aminocyclohex-3-en-1-yl-2,2,3,4,5,5-d6)-3,5-dichloro-N-(furan-2-ylmethyl)thieno[3,2-b]pyridin-7-amine [Compound 180]	≤ 30 nM	≤ 30 nM
N[C@H]1CCCC[C@@H]1c1sc2c(NCc3cccs3)cc(Cl)nc2c1C1CC1 [Compound 130, 2-((1S,2S)-2-aminocyclohexyl)-5-chloro-3-cyclopropyl-N-(thiophen-2-ylmethyl)thieno[3,2-b]pyridin-7-amine]	30 to 300 nM	30 to 300 nM

The remaining lines, values ahead:

IC50 [1]	IC50 (ATXN3 pre-mRNA)	Compound
30 to 300 nM	30 to 300 nM	N[C@@H]1CCCC[C@H]1c1sc2c(NCc3ccccc3)cc(Cl)nc2c1Cl [Compound 368, 2-((1R,2R)-2-aminocyclohexyl)-N-benzyl-3,5-dichlorothieno[3,2-b]pyridin-7-amine]
30 to 300 nM	30 to 300 nM	Cc1c([C@H]2COCC[C@@H]2N)sc2c(NCc3ccccc3)cc(Cl)nc12 [Compound 321, 2-((3R,4S)-4-aminotetrahydro-2H-pyran-3-yl)-N-benzyl-5-chloro-3-methylthieno[3,2-b]pyridin-7-amine]
≤ 30 nM	≤ 30 nM	N[C@H]1CC=CC[C@@H]1c1sc2c(NCc3ccccc3)cc(Cl)nc2c1Cl [Compound 207, 2-((1S,6S)-6-aminocyclohex-3-en-1-yl)-N-benzyl-3,5-dichlorothieno[3,2-b]pyridin-7-amine]
30 to 300 nM	30 to 300 nM	Cn1c([C@@H]2CCOC[C@H]2N)c(Br)c2nc(Cl)cc(NCc3cccs3)c21 [Compound 384, 2-((3S,4R)-3-aminotetrahydro-2H-pyran-4-yl)-3-bromo-5-chloro-1-methyl-N-(thiophen-2-ylmethyl)-1H-pyrrolo[3,2-b]pyridin-7-amine]
30 to 300 nM	30 to 300 nM	N[C@@H]1CC=CC[C@H]1c1sc2c(NCc3ccccc3)cc(Cl)nc2c1I [Compound 345, 2-((1R,6R)-6-aminocyclohex-3-en-1-yl)-N-benzyl-5-chloro-3-iodothieno[3,2-b]pyridin-7-amine]
30 to 300 nM	30 to 300 nM	N[C@H]1CCCO[C@@H]1c1c(Cl)c2nc(Cl)nc(NCc3ccco3)c2n1C(F)F [Compound 271, 6-((2S,3S)-3-aminotetrahydro-2H-pyran-2-yl)-2,7-dichloro-5-(difluoromethyl)-N-(furan-2-ylmethyl)-5H-pyrrolo[3,2-d]pyrimidin-4-amine]
≤ 30 nM	≤ 30 nM	Cc1c([C@H]2CC=CC[C@@H]2N)sc2c(NCc3ccco3)cc(Cl)nc12 [Compound 184, 2-((1S,6S)-6-aminocyclohex-3-en-1-yl)-5-chloro-N-(furan-2-ylmethyl)-3-methylthieno[3,2-b]pyridin-7-amine]
30 to 300 nM	30 to 300 nM	Cc1c([C@@H]2CC=CC[C@H]2N)sc2c(NCc3ccco3)nc(Cl)nc12 [Compound 413, 6-((1R,6R)-6-aminocyclohex-3-en-1-yl)-2-chloro-N-(furan-2-ylmethyl)-7-methylthieno[3,2-d]pyrimidin-4-amine]
30 to 300 nM	30 to 300 nM	CC#CCNc1cc(Cl)nc2c(Cl)c([C@H]3CCCC[C@@H]3N)sc12 [Compound 308, 2-((1S,2S)-2-aminocyclohexyl)-N-(but-2-yn-1-yl)-3,5-dichlorothieno[3,2-b]pyridin-7-amine]
300 to 1000 nM	300 to 1000 nM	Cc1c([C@H]2CC=CC[C@@H]2N)n(C(F)F)c2c(NCc3ccccc3)nc(Cl)nc12 [Compound 399, 6-((1S,6S)-6-aminocyclohex-3-en-1-yl)-N-benzyl-2-chloro-5-(difluoromethyl)-7-methyl-5H-pyrrolo[3,2-d]pyrimidin-4-amine]
≤ 30 nM	≤ 30 nM	N[C@@H]1CCOC[C@H]1c1sc2c(NCc3cccs3)cc(Cl)nc2c1Cl [Compound 405, 2-((3S,4R)-4-aminotetrahydro-2H-pyran-3-yl)-3,5-dichloro-N-(thiophen-2-ylmethyl)thieno[3,2-b]pyridin-7-amine]
≤ 30 nM	≤ 30 nM	Cc1c([C@H]2CC=CC[C@@H]2N)sc2c(NCc3ccco3)nc(Cl)nc12 [Compound 193, 6-((1S,6S)-6-aminocyclohex-3-en-1-yl)-2-chloro-N-(furan-2-ylmethyl)-7-methylthieno[3,2-d]pyrimidin-4-amine]

Source: patent US20250382305A1 (PTC THERAPEUTICS, INC., priority 2022, published 2025)
